What was measured:
[1] = tested on: Histidine specific antibody (polyclonal IgG ab6442 from ABCAM); assay: Native polyacrylamide gel shift with Histidine specific antibody; assay type: binding; conditions: native 12% polyacrylamide gel; compared to 20-mer polydT controls
Description: Example using monomer to produce a H-tag. Six His side chain monomers (H) as described in example 1 c2 are added during oligonucleotide synthesis to the 5′ position of a 20mer polydT, such that the final sequence is 5′HHH HHH TTT TTT TTT TTT TTT TTT TT3′. H is used at a concentration of 0.1M in acetonitrile for synthesis. The chimeric polymer is synthesized according to manufacturer's recommendations for the ABI Expedite synthesizer. After deprotection the H-tagged polydT was incubated with Histidine specific antibody (polyclonal IgG ab6442 from ABCAM). A control sample of 20-mer polydT was also incubated with the Histidine specific antibody. A native 12% polyacrylamide (20:1 acrylamide:bis) was loaded with 4 samples: 20-mer polydT, 20-mer polydT+Histidine specific antibody, His-tagged 20-mer polydT, His-tagged 20-mer polydT+Histidine specific antibody.

[2] = tested on: VMCs from the left anterior descending, circumflex, and right coronary arteries; assay: Calcium signal (fluo 3 fluorescence) and contractility of single coronary artery VMCs; assay type: cell-based, rhesus monkeys; conditions: images at 1 minute and subsequent time points
From the text: Single VMCs from the left anterior descending, circumflex, and right coronary arteries of adult rhesus monkeys are isolated and studied both as freshly dispersed and as primary cultures. The short-term primary cultured cells (never passaged) maintain the characteristics of the source tissue for 2 to 3 weeks, including contraction, relaxation, receptors, and membrane electrical properties. VMCs are dissociated with collagenase and protease enzymes in a potassium glutamate solution (KG) that prevents loading with Na^+, Ca2^+, or Cl^− and results in a high proportion of viable, contracting cells (Miyagawa et al, Am J Physiol 272:H2645-2654, 1997; Hermsmeyer et, Art Thromb Vasc Biol, 24:955-961, 2004). […]
Freshly dispersed or primary cultured VMCs on glass coverslips are placed in a chamber of laminar flow design on an Axiovert inverted fluorescence microscope and observed with a Zeiss Plan Neofluar 25X/0.80 water immersion objective. Fluorescence intensity is measured with high sensitivity calibrated video sensor and recorded digitally via computer acquisition and management program. […] Fluorescent images are taken at 1 minute and subsequent time points from which light intensity is equated to changes in calcium signal (fluorescence) and cell contractility.

Compound: 5′HHH HHH TTT TTT TTT TTT TTT TTT TT3′ [His-tagged 20-mer polydT]
- gel shift on addition of the Histidine specific antibody [1]: gel shift

Compound: NC(=O)CC[C@@H]1NC(=O)[C@H](Cc2ccccc2)NC(=O)[C@H](Cc2ccc(O)cc2)NC(=O)[C@@H](N)CSSC[C@@H](C(=O)N2CCC[C@H]2C(=O)N[C@@H](CCCN=C(N)N)C(=O)NCC(N)=O)NC(=O)[C@H](CC(N)=O)NC1=O [arginine vasopressin]
- calcium signal (fluorescence) ([2]; individual VMC loaded with 3 μM fluo 3): affect
- cell contractility ([2]; individual VMC): affect
